Experimental data taken from patent publication US11053248B2, “[1,2,4]triazolo[1,5-a]pyrimidine compounds as PDE2 inhibitors” (Janssen Pharmaceutica NV, priority 2016, dated 2021).

Assays:
[1] = Solubility (as reported); assay type: physicochemical; conditions: in words
[2] = system: hPDE3B; assay: In vitro assay PDE3 (SPA, 3H-cAMP); assay type: biochemical, human
[3] = system: mossy fiber synapse; assay: Effect on synaptic transmission: weak HFS-induced LTP, hippocampal slices (MEA); assay type: cell-based, rat
From the text: Effect of Test Compounds on Synaptic Transmission Critical Reagents
Sucrose dissection buffer contained (in mM) sucrose (150), NaCl (40), KCl (4), NaH2PO4.H2O (0.3), MgCl.6H2O (7), NaHCO3 (26), CaCl2.2H2O (0.5), D-glucose (10), equilibrated with 95% O2 and 5% CO2 gas mixture. Artificial cerebrospinal fluid (ACSF) used during equilibration and recording contained (in mM): NaCl (124), KCl (2.7), NaH2PO4.H2O (1.25), MgSO4.7H2O (1.3), NaHCO3 (26), CaCl2.2H2O (2), D-glucose (10), Ascorbic acid (2), equilibrated with 95% O2 and 5% CO2 gas mixture. CNQX and Kynurenic acid were prepared in ACSF at a 50 μM and 1 mM concentration respectively. […] All reagents were from Sigma-Aldrich, unless otherwise indicated. […]
All data were recorded with a MEA set-up commercially available from MultiChannel Systems MCS GmbH (Reutlingen, Germany) composed of a 4-channel stimulus generator and a 60-channels amplifier head-stage connected to a 60-channels A/D card. […]
Extracellular field potential recordings. […] All data were recorded with a MEA set-up commercially available from MultiChannel Systems MCS GmbH (Reutlingen, Germany). Two adjacent electrodes of the chip were selected to stimulate the mossy fibres in the hilar region of the dentate gyrus and the fEPSP was recorded the terminal zone area of the CA3 region of the hippocampus. […]

[4] = target: hPDE10A2 (Homo sapiens, UniProt Q9Y233); assay: biochemical
Sequence of hPDE10A2 (Q9Y233 267-1055): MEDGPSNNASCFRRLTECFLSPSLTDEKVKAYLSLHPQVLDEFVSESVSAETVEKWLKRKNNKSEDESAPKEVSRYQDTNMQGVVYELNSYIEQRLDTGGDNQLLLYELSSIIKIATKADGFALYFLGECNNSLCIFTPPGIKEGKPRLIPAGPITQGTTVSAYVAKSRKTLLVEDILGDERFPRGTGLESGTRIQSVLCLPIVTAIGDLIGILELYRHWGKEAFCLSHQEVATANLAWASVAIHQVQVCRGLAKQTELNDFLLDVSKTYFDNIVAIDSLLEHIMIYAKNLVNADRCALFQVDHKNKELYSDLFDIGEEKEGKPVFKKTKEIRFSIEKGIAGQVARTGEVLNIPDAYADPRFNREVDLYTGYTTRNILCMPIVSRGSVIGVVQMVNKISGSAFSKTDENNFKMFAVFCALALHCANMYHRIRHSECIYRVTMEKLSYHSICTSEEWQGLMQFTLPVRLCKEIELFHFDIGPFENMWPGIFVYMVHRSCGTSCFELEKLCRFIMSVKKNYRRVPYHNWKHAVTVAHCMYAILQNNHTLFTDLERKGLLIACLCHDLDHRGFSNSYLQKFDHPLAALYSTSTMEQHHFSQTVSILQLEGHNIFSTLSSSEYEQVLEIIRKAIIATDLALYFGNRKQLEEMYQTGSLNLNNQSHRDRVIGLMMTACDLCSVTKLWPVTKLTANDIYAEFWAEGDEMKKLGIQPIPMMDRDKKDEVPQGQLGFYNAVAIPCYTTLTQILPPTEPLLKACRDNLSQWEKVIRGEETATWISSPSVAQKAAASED

## C[C@@H]1CCN(c2nccc3ccc(Br)cc23)C[C@H]1c1cc(C(F)F)nc2ncnn12 [Compound 1]
[1]
  solubility: poor
[2]
  hPDE3B Emax: 73
[2]; 0.4 μM cAMP substrate
  hPDE3B pIC50: 5.25
[3]; hippocampal slice, reported, in words
  penetration to the tissue: poor
[3]; mossy fiber synapse, hippocampal slices of male Sprague-Dawley rats, FIG. 1
  effect on weak HFS-induction of long term potentiation (LTP): did not facilitate the induction of LTP
[4]; 60 nM cAMP substrate, read-out: hPDE10A2 pIC50 (converted)
  IC50: 550 nM
[4]; read-out: hPDE10A2 Emax
  Emax: 98%
